Experimental data from patent US9499550B2 (BRISTOL-MYERS SQUIBB COMPANY, priority 2012, dated 2016).
Read-outs that look alike come from different tables or passages of the source.

Tests used:
[1] = test system: HCV genotype 1b (Con1) replicon in HUH-7 cells; assay: HCV replicon luciferase reporter assay, genotype 1b; type: cell-based; conditions: Hepatitis C virus, Huh-7, 72 h, 3 days incubation
Summary of the method: (§1)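 Replicon inhibition for both genotypes was measured as Renilla luciferase signal (EnduRen, 7.5 μM final, 2 h) after 3-day, 37° C exposure of replicon-bearing HUH-7 cells in 4% FCS DMEM, 0.5% DMSO. The 1b construct carries S1179I; the 1a H77 construct carries P1496L and S2204I. Twenty-point, 3-fold dilutions were fitted four-parametrically for EC50, and CC50 was taken from multiplexed Cell Titer-Blue.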

[2] = test system: HCV genotype 1a (H77 strain) replicon in HUH-7 cells; assay: HCV replicon luciferase reporter assay, genotype 1a; type: cell-based; conditions: Hepatitis C virus, Huh-7, 72 h, 3 days incubation
Summary of the method: as §1

[3] = HCV genotype 1b replicon luciferase, read-out: LE_1b (EC50, range)
[4] = HCV genotype 1a replicon luciferase, read-out: LE_1a (EC50, range)
[5] = HCV genotype 1b replicon luciferase assay, range class, read-out: LE_1b (EC50, range)
[6] = HCV genotype 1a replicon luciferase assay, range class, read-out: LE_1a (EC50, range)
[7] = GETYPE1B, HCV genotype 1b replicon luciferase, read-out: LE_1b (EC50, range)
[8] = GETYPE1A, HCV genotype 1a replicon luciferase, read-out: LE_1a (EC50, range)

SMILES	EC50 [1, 3]	EC50 [2, 4]	also measured
CCOc1cc2cc(OC)ccc2c(O[C@@H]2C[C@H]3C(=O)N[C@]4(C(=O)NS(=O)(=O)C5(C)CC5)C[C@H]4/C=C\CC[C@@H](C)C[C@@H](C)[C@H](NC(=O)OC(C)(C)C)C(=O)N3C2)n1 [Compound 3194, tert-butyl ((2R,6S,7R,9R,13aS,14aR,16aS,Z)-2-((3-ethoxy-6-methoxyisoquinolin-1-yl)oxy)-7,9-dimethyl-14a-(((1-methylcyclopropyl)sulfonyl)carbamoyl)-5,16-dioxo-1,2,3,5,6,7,8,9,10,11,13a,14,14a,15,16,16a-hexadecahydrocyclopropa[e]pyrrolo[1,2-a][1,4]diazacyclopentadecin-6-yl)carbamate]	0.1 to 0.5 nM	0.51 to 1 nM	EC50 ([1]; HCV genotype 1b replicon luciferase, read-out: LE_1b (EC50)): 0.44 nM; EC50 ([2]; HCV genotype 1a replicon luciferase, read-out: LE_1a (EC50)): 0.62 nM
COc1cc2cc(-c3ccc(OC(C)C)cc3)nc(O[C@@H]3C[C@H]4C(=O)N[C@]5(C(=O)NS(=O)(=O)C6CC6)C[C@H]5/C=C\CC[C@@H](C)C[C@@H](C)[C@H](NC(=O)OC(C)(C)C)C(=O)N4C3)c2cc1F [Compound 3182, tert-butyl ((2R,6S,7R,9R,13aS,14aR,16aS,Z)-14a-((cyclopropylsulfonyl)carbamoyl)-2-((7-fluoro-3-(4-isopropoxyphenyl)-6-methoxyisoquinolin-1-yl)oxy)-7,9-dimethyl-5,16-dioxo-1,2,3,5,6,7,8,9,10,11,13a,14,14a,15,16,16a-hexadecahydrocyclopropa[e]pyrrolo[1,2-a][1,4]diazacyclopentadecin-6-yl)carbamate]			EC50 [1, 5]: < 5.46 nM; EC50 [2, 6]: < 5.46 nM
CC[C@@H]1C[C@H](C)CC/C=C\[C@@H]2C[C@@]2(C(=O)NS(=O)(=O)C2(C)CC2)NC(=O)[C@@H]2C[C@@H](Oc3ncc(OC)c4cc(OC)ccc34)CN2C(=O)[C@H]1NC(=O)OC(C)(C)C [Compound 4196, tert-butyl (2R,6S,7R,9R,13aS,14aR,16aS,Z)-2-(4,6-dimethoxyisoquinolin-1-yloxy)-7-ethyl-9-methyl-14a-(1-methylcyclopropylsulfonylcarbamoyl)-5,16-dioxo-1,2,3,5,6,7,8,9,10,11,13a,14,14a,15,16,16a-hexadecahydrocyclopropa[e]pyrrolo[1,2-a][1,4]diazacyclopentadecin-6-ylcarbamate]	< 5.46 nM	< 5.46 nM	
COc1ccc2c(O[C@@H]3C[C@H]4C(=O)N[C@]5(C(=O)NS(=O)(=O)C6(F)CC6)C[C@H]5/C=C\CC[C@H](C)C[C@@H](C)[C@H](NC(=O)OC(C)(C)C)C(=O)N4C3)nccc2c1 [Compound 10, tert-butyl ((2R,6S,7R,9S,13aS,14aR,16aS,Z)-14a-(((1-fluorocyclopropyl)sulfonyl)carbamoyl)-2-((6-methoxyisoquinolin-1-yl)oxy)-7,9-dimethyl-5,16-dioxo-1,2,3,5,6,7,8,9,10,11,13a,14,14a,15,16,16a-hexadecahydrocyclopropa[e]pyrrolo[1,2-a][1,4]diazacyclopentadecin-6-yl)carbamate]			EC50 [1, 5]: < 5.46 nM; EC50 ([1]; HCV genotype 1b replicon luciferase assay, read-out: LE_1b (EC50)): 0.8 nM; EC50 [2, 6]: < 5.46 nM; EC50 ([2]; HCV genotype 1a replicon luciferase assay, read-out: LE_1a (EC50)): 3.08 nM
COc1ccc2c(O[C@@H]3C[C@H]4C(=O)N[C@]5(C(=O)NS(=O)(=O)C6(F)CC6)C[C@H]5/C=C\CC[C@@H](C)C[C@@H](C)[C@H](NC(=O)OC(C)(C)C(F)(F)F)C(=O)N4C3)ncc(Cl)c2c1 [Compound 4028]			EC50 [1, 7]: < 5.46 nM; EC50 [2, 8]: < 5.46 nM
CC[C@@H]1C[C@H](C)CC/C=C\[C@@H]2C[C@@]2(C(=O)NS(=O)(=O)C2(CF)CC2)NC(=O)[C@@H]2C[C@@H](Oc3nc4c(c5ccccc35)CCCO4)CN2C(=O)[C@H]1NC(=O)OC(C)(C)C(F)F [Compound 6072, 1,1-difluoro-2-methylpropan-2-yl((2R,6S,7R,9R,13aS,14aR,16aS,Z)-2-((2,3-dihydro-1H-pyrano[2,3-c]isoquinolin-6-yl)oxy)-7-ethyl-14a-(((1-(fluoromethyl)cyclopropyl)sulfonyl)carbamoyl)-9-methyl-5,16-dioxo-1,2,3,5,6,7,8,9,10,11,13a,14,14a,15,16,16a-hexadecahydrocyclopropa[e]pyrrolo[1,2-a][1,4]diazacyclopentadecin-6-yl)carbamate]	0.51 to 1 nM	1.01 to 5 nM	
C[C@H]1CC/C=C\[C@@H]2C[C@@]2(C(=O)NS(=O)(=O)C2(CF)CC2)NC(=O)[C@@H]2C[C@@H](Oc3nccc4c5c(ccc34)OCCO5)CN2C(=O)[C@@H](NC(=O)OC(C)(C)C(F)(F)F)[C@H](C)C1 [Compound 5322, 1,1,1-trifluoro-2-methylpropan-2-yl((2R,6S,7R,9S,13aS,14aR,16aS,Z)-2-((2,3-dihydro-[1,4]dioxino[2,3-f]isoquinolin-7-yl)oxy)-14a-(((1-(fluoromethyl)cyclopropyl)sulfonyl)carbamoyl)-7,9-dimethyl-5,16-dioxo-1,2,3,5,6,7,8,9,10,11,13a,14,14a,15,16,16a-hexadecahydrocyclopropa[e]pyrrolo[1,2-a][1,4]diazacyclopentadecin-6-yl)carbamate]	< 5.46 nM	< 5.46 nM	
[2H]C([2H])([2H])Oc1cnc(O[C@@H]2C[C@H]3C(=O)N[C@]4(C(=O)NS(=O)(=O)C5(C)CC5)C[C@H]4/C=C\CC[C@H](C)C[C@@H](C)[C@H](NC(=O)OC(C)(C)C(F)(F)F)C(=O)N3C2)c2ccccc12 [Compound 5102, 1,1,1-trifluoro-2-methylpropan-2-yl((2R,6S,7R,9S,13aS,14aR,16aS,Z)-7,9-dimethyl-14a-(((1-methylcyclopropyl)sulfonyl)carbamoyl)-5,16-dioxo-2-((4-(trideuteromethoxy)isoquinolin-1-yl)oxy)-1,2,3,5,6,7,8,9,10,11,13a,14,14a,15,16,16a-hexadecahydrocyclopropa[e]pyrrolo[1,2-a][1,4]diazacyclopentadecin-6-yl)carbamate]	< 5.46 nM	< 5.46 nM	
CC[C@@H]1C[C@H](C)CC/C=C\[C@@H]2C[C@@]2(C(=O)NS(=O)(=O)C2CC2)NC(=O)[C@@H]2C[C@@H](Oc3nc4cc(OC(C)C)ccc4nc3C(F)(F)F)CN2C(=O)[C@H]1NC(=O)OC(C)(C)C [Compound 4337, tert-butyl ((2R,6S,7R,9R,13aS,14aR,16aS,Z)-14a-((cyclopropylsulfonyl)carbamoyl)-7-ethyl-2-((7-isopropoxy-3-(trifluoromethyl)quinoxalin-2-yl)oxy)-9-methyl-5,16-dioxo-1,2,3,5,6,7,8,9,10,11,13a,14,14a,15,16,16a-hexadecahydrocyclopropa[e]pyrrolo[1,2-a][1,4]diazacyclopentadecin-6-yl)carbamate]	0.51 to 1 nM	0.51 to 1 nM	
COc1ccc2c(O[C@@H]3C[C@H]4C(=O)N[C@]5(C(=O)NS(=O)(=O)C6CC6)C[C@H]5/C=C\CC[C@@H](C)C[C@@H](C)[C@H](NC(=O)OC(C)(C)C)C(=O)N4C3)nccc2c1F [Compound 3148, tert-butyl ((2R,6S,7R,9R,13aS,14aR,16aS,Z)-14a-((cyclopropylsulfonyl)carbamoyl)-2-((5-fluoro-6-methoxyisoquinolin-1-yl)oxy)-7,9-dimethyl-5,16-dioxo-1,2,3,5,6,7,8,9,10,11,13a,14,14a,15,16,16a-hexadecahydrocyclopropa[e]pyrrolo[1,2-a][1,4]diazacyclopentadecin-6-yl)carbamate]			EC50 [1, 5]: < 5.46 nM; EC50 [2, 6]: < 5.46 nM
COCCOc1cc2c(Cl)cccc2c(O[C@@H]2C[C@H]3C(=O)N[C@]4(C(=O)NS(=O)(=O)C5(C)CC5)C[C@H]4/C=C\CC[C@H](C)C[C@@H](C)[C@H](NC(=O)OC(C)(C)C)C(=O)N3C2)n1 [Compound 1117, tert-butyl ((2R,6S,7R,9S,13aS,14aR,16aS,Z)-2-((5-chloro-3-(2-methoxyethoxyl)isoquinolin-1-yl)oxy)-7,9-dimethyl-14a-(((1-methylcyclopropyl)sulfonyl)carbamoyl)-5,16-dioxo-1,2,3,5,6,7,8,9,10,11,13a,14,14a,15,16,16a-hexadecahydrocyclopropa[e]pyrrolo[1,2-a][1,4]diazacyclopentadecin-6-yl)carbamate]			EC50 [1, 5]: < 5.46 nM; EC50 [2, 6]: < 5.46 nM
COc1ccc2c(O[C@@H]3C[C@H]4C(=O)N[C@]5(C(=O)NS(=O)(=O)C6CC6)C[C@H]5/C=C\CC[C@H](C)C[C@@H](C)[C@H](NC(=O)OC(C)(C)C)C(=O)N4C3)nccc2c1 [Compound 1206, tert-butyl ((2R,6S,7R,9S,13aS,14aR,16aS,Z)-14a-((cyclopropylsulfonyl)carbamoyl)-2-((6-methoxyisoquinolin-1-yl)oxy)-7,9-dimethyl-5,16-dioxo-1,2,3,5,6,7,8,9,10,11,13a,14,14a,15,16,16a-hexadecahydrocyclopropa[e]pyrrolo[1,2-a][1,4]diazacyclopentadecin-6-yl)carbamate]	1.01 to 5 nM	1.01 to 5 nM	
COc1ccc2c(O[C@@H]3C[C@H]4C(=O)N[C@]5(C(=O)NS(=O)(=O)C6(F)CC6)C[C@H]5/C=C\CC[C@@H](C)C[C@@H](C)[C@H](NC(=O)OC(C)C)C(=O)N4C3)nccc2c1 [Compound 4016]	< 5.46 nM	< 5.46 nM	
CC[C@@H]1C[C@H](C)CC/C=C\[C@@H]2C[C@@]2(C(=O)NS(=O)(=O)C2(C)CC2)NC(=O)[C@@H]2C[C@@H](Oc3cnc4ccc(OC)cc4c3)CN2C(=O)[C@H]1NC(=O)OC(C)(C)C(F)(F)F [Compound 4100]			EC50 [1, 7]: < 5.46 nM; EC50 [2, 8]: < 5.46 nM
